Structures can show the parent of a compound that is named as a salt. Where two headings read alike, the source gives them in different places.
Experiments:
Recombinant human BChE [1] = target: T1, Recombinant human BChE (Homo sapiens, UniProt P06276); experiment: biochemical; conditions: for Emax: read-out: BChE, % Efficacy
recombinant human AChE = recombinant human AChE (Homo sapiens, UniProt P22303); experiment: biochemical; format: biochemical; conditions: for Emax: read-out: AChE, % Efficacy
Recombinant human BChE [2] = target: T1, Recombinant human BChE; format: biochemical

Sequence of recombinant human AChE (P22303 32-614): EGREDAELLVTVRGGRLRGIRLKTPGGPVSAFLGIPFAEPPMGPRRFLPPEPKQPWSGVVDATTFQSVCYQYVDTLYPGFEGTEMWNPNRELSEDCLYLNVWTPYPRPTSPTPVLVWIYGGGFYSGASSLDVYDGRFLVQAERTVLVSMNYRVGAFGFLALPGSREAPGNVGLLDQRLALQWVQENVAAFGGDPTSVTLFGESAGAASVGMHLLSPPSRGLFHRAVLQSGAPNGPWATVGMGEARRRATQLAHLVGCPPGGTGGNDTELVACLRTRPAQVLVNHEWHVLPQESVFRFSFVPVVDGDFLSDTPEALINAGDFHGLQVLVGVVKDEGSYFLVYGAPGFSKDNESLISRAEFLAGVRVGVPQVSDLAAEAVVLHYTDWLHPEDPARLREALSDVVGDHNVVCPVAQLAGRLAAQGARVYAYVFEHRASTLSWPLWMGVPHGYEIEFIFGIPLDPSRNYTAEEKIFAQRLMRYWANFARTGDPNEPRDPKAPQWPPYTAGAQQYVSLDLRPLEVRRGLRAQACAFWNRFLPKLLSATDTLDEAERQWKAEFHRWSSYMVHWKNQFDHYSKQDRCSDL
T1 sequence (P06276 29-602): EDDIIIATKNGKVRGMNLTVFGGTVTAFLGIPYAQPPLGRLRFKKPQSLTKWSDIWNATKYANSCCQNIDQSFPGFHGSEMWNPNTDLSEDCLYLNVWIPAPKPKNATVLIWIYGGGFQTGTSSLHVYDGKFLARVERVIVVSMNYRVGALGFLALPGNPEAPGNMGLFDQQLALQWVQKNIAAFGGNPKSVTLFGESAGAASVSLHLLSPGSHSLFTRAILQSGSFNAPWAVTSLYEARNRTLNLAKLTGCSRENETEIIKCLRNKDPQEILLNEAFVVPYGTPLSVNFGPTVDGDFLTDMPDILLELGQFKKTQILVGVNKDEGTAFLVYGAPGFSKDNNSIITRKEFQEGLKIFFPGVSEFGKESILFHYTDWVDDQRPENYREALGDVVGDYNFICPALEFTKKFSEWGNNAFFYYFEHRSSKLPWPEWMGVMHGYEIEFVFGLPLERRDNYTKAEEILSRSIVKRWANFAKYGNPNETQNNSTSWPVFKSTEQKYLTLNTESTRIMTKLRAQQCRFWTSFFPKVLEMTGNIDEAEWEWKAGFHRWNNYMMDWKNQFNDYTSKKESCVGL

Molecule: O=C(CN1CCN(Cc2ccc3c(c2)OCO3)CC1)N1c2ccccc2Sc2ccccc21 [Fenoverine]
- IC50 (Recombinant human BChE [1]; BChE, IC50): 90 nM
- Emax (Recombinant human BChE [1]): -97.3%
- AChE inhibition (recombinant human AChE): did not show AChE inhibition
- AChE, IC50 (recombinant human AChE): Inactive

Molecule: CCN(CCCc1ccccc1)CCCc1ccccc1 [Alverine citrate]
- IC50 (Recombinant human BChE [1]; BChE, IC50): 380 nM
- Emax (Recombinant human BChE [1]): -95%
- AChE, IC50 (recombinant human AChE): Inactive

Molecule: Cc1c[nH]c2ncnc(N3CCC(CN)(C(=O)Nc4cccc(OC(=O)N(C)C)c4)CC3)c12 [LX-7101]
- IC50 (Recombinant human BChE [1]; BChE, IC50): 220 nM
- Emax (Recombinant human BChE [1]): -96.6%
- IC50 (recombinant human AChE): 7710 nM
- Emax (recombinant human AChE): -92.4%

Molecule: Clc1ccc(Nc2nc3ccccc3c3nc(C4CCCCC4)[nH]c23)cc1Cl [LUF6000]
- inhibition against BChE in the fluorescent assay (Recombinant human BChE [2]): did not show inhibition

Molecule: CN(C)C(=O)Oc1cc(OC(=O)N(C)C)cc(C(O)CNC(C)(C)C)c1 (stereo not shown) [Bambuterol hydrochloride]
- IC50 (Recombinant human BChE [1]; BChE, IC50): 30 nM
- Emax (Recombinant human BChE [1]): -91.4%
- AChE, IC50 (recombinant human AChE): Inactive

Molecule: Cc1c(Cl)c(=O)oc2cc(OP(=O)(OCCCl)OCCCl)ccc12 [Haloxon]
- IC50 (Recombinant human BChE [1]; BChE, IC50): 30 nM
- Emax (Recombinant human BChE [1]): -91.2%
- IC50 (recombinant human AChE): 320 nM
- Emax (recombinant human AChE): -101%

Molecule: CCN(CC)C(C)CN1c2ccccc2Sc2ccccc21 (stereo not shown) [ethopropazine hydrochloride, Ethopropazine hydrochloride]
- IC50 (Recombinant human BChE [1]; BChE, IC50): 1700 ± 530 nM

Molecule: CC(C)OC(=O)C1=CN(C(=O)c2ccc(F)c(F)c2)CC(C)(C)c2c1[nH]c1ccccc21 [Turofexorate isopropyl]
- IC50 (Recombinant human BChE [1]; BChE, IC50): 290 nM
- Emax (Recombinant human BChE [1]): -98.5%
- AChE inhibition (recombinant human AChE): did not show AChE inhibition
- AChE, IC50 (recombinant human AChE): Inactive

Molecule: Diethylumbelliferyl phosphate
- AChE, % Efficacy (recombinant human AChE): 0.42 ± 0.03 (–98.6 ± 5.66) %

Molecule: N#CC(c1ccnc(OCc2ccc(CN3CCOCC3)cc2)n1)c1nc2ccccc2s1 (stereo not shown) [Bentamapimod]
- IC50 (Recombinant human BChE [1]; BChE, IC50): 330 nM
- Emax (Recombinant human BChE [1]): -98.8%
- AChE inhibition (recombinant human AChE): did not show AChE inhibition
- AChE, IC50 (recombinant human AChE): Inactive

Molecule: CCCCCCCCCCC[C@@H](C[C@@H]1OC(=O)[C@H]1CCCCCC)OC(=O)[C@H](CC(C)C)NC=O [Orlistat]
- IC50 (Recombinant human BChE [1]; BChE, IC50): 120 nM
- Emax (Recombinant human BChE [1]): -92.9%
- Emax (recombinant human AChE): -80.5%

Molecule: CNC(=O)Oc1ccc2c(c1)[C@]1(C)CCN(C)[C@@H]1N2C [Physostigmine]
- Emax (Recombinant human BChE [1]): -98.4%
- Emax (recombinant human AChE): -103%

Molecule: CN(C)C(=O)Oc1cccc([N+](C)(C)C)c1 [Neostigmine bromide]
- IC50 (Recombinant human BChE [1]; BChE, IC50): 900 nM
- Emax (Recombinant human BChE [1]): -102%
- Emax (recombinant human AChE): -94.6%

Molecule: COc1ccc(CN(C(=O)[C@@H](N)Cc2c(C)cc(C(N)=O)cc2C)[C@@H](C)c2ncc(-c3ccccc3)[nH]2)cc1C(=O)O [Eluxadoline]
- IC50 (Recombinant human BChE [1]; BChE, IC50): 340 nM
- Emax (Recombinant human BChE [1]): -100%
- AChE, IC50 (recombinant human AChE): Inactive

Molecule: CCCCn1c(-c2ccccc2)nc(-c2ccccc2)c1CN(Cc1ccc2c(c1)OCO2)Cc1ccc2c(c1)OCO2 [NDT 9513727, N,N-Bis(1,3-benzodioxol-5-ylmethyl)-1-butyl-2,4-diphenyl-1H-imidazole-5-methanamine]
- IC50 (Recombinant human BChE [1]; BChE, IC50): 210 nM
- Emax (Recombinant human BChE [1]): -101%
- AChE inhibition (recombinant human AChE): did not show AChE inhibition
- AChE, IC50 (recombinant human AChE): Inactive

Molecule: COc1cc(O)ccc1OCCNCC(O)COc1cccc2[nH]c3ccccc3c12 (stereo not shown) [4-hydroxyphenyl carvedilol]
- BChE, % Efficacy (Recombinant human BChE [1]): 0.97 ± 0.11 (–100 ± 2.04) %
- IC50 (Recombinant human BChE [1]; read-out: BChE, IC50): 970 nM
- AChE, IC50 (recombinant human AChE): Inactive

Molecule: Nc1c2ccccc2nc2ccccc12 [9-Aminoacridine monohydrochloride monohydrate]
- IC50 (Recombinant human BChE [1]; BChE, IC50): 160 nM
- Emax (Recombinant human BChE [1]): -101%

Molecule: CN1CCc2cc(Cl)c(O)cc2[C@@H](c2cccc3c2OCC3)C1 [NNC 756]
- BChE, % Efficacy (Recombinant human BChE [1]): 0.84 ± 0.11 (–98.2 ± 6.31) %
- IC50 (Recombinant human BChE [1]; read-out: BChE, IC50): 840 nM
- AChE, IC50 (recombinant human AChE): Inactive

Molecule: O=c1nc(-c2ccccn2)sc2ccccc12 [BTZO 1]
- BChE, % Efficacy (Recombinant human BChE [1]): 0.49 ± 0.25 (–94.6 ± 2.01) %
- IC50 (Recombinant human BChE [1]; read-out: BChE, IC50): 490 nM
- AChE, IC50 (recombinant human AChE): Inactive

Reference: paper PMC8637366 (Slas Discovery, 2021)
